Several values for one entry are separate records, joined by “and”; a condition that tells them apart may be missing. Equal entries are not always repeated.
Columns and labels:
[1] = test system: Angiotensin II (AII) vasopressor response; assay: AII Challenge: antagonism of the angiotensin II vasopressor response in conscious SHR; format: in vivo, Spontaneously hypertensive rats (Male okamoto-Aoki SHR); settings: 10 mg/kg I.V.; for Average Change / Inhibition: n = 2; for Change / Control Before AII / Response After AII: per rat
Angiotensin II Receptor = molecular target: T1, Angiotensin II Receptor (Bos taurus, UniProt P25104); assay: Receptor binding assay: competition of [^125 I](Sar^1,Ile^8)AngII binding to beef adrenal cortex microsomal membranes; settings: 60 min, room temperature, pH 7.4
T1 construct: The brownish tissue forming the adrenal cortex is scraped off and finely minced with scissors before homogenization; tissue local slaughter house (Maxwell-Cohen); host or cells: beef adrenal cortex, microsomal membranes (100,000×g pellet)
T1 sequence (P25104 1-359): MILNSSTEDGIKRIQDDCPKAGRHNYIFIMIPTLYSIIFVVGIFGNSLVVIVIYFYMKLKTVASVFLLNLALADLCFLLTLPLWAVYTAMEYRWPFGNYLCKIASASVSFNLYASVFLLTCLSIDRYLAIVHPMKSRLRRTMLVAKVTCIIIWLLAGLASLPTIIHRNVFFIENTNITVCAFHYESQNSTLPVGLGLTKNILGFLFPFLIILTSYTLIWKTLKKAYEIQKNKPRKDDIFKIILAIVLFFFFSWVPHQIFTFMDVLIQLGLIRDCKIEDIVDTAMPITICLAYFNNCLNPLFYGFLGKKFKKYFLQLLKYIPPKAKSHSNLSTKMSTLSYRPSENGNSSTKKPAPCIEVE

[2] = AII 0.05 mcg/kg IV, 30 min post dose
[3] = AII 0.05 mcg/kg IV, 60 min post dose
[4] = AII 0.05 mcg/kg IV, 90 min post dose
[5] = AII 0.05 mcg/kg IV, 120 min post dose
[6] = AII 0.05 mcg/kg IV, 180 min post dose
[7] = AII 0.1 mcg/kg IV, 30 min post dose
[8] = AII 0.1 mcg/kg IV, 60 min post dose
[9] = AII 0.1 mcg/kg IV, 90 min post dose
[10] = AII 0.1 mcg/kg IV, 120 min post dose
[11] = AII 0.1 mcg/kg IV, 180 min post dose

With `CCCCc1nc2ccc(C3CC(C(=O)OCC)=NO3)cc2c(=O)n1Cc1ccc(-c2ccccc2-c2nnn[nH]2)cc1` (stereo not drawn) [Example 26, Ethyl 5-[2-butyl-3,4-dihydro-4-oxo-3-[[2'-(lH-tetrazol-5-yl)[1,1'-biphenyl]-4-yl]-methyl]-6-cruinazo-linyl]-4,5-dihydro-3-isoxazolecarboxylate] the “Average Change” value [1, 2] was 15 mmhg, the Inhibition [1, 2] was 73% and the Change [1, 2] was 15 mmhg. For the same molecule, the “Control Before AII” value [1, 2] was 180 mmhg and 175 mmhg, the “Response After AII” value [1, 2] was 195 mmhg and 190 mmhg and the “Average Change” value [1, 3] was 10.5 mmhg. For the same molecule, the Inhibition [1, 3] was 81%, the Change [1, 3] was 20 mmhg and 1 mmhg and the “Control Before AII” value [1, 3] was 175 mmhg and 195 mmhg. The “Response After AII” value [1, 3] was 195 mmhg and 196 mmhg, the “Average Change” value [1, 4] was 17 mmhg and the Inhibition [1, 4] was 70%. The Change [1, 4] was 15 mmhg and 19 mmhg, the “Control Before AII” value [1, 4] was 175 mmhg and 165 mmhg and the “Response After AII” value [1, 4] was 190 mmhg and 184 mmhg. For the same molecule, the “Average Change” value [1, 5] was 20 mmhg, the Inhibition [1, 5] was 64% and the Change [1, 5] was 20 mmhg. The “Control Before AII” value [1, 5] was 165 mmhg, the “Response After AII” value [1, 5] was 185 mmhg and the “Average Change” value [1, 6] was 17.5 mmhg. For the same molecule, the Inhibition [1, 6] was 69%, the Change [1, 6] was 15 mmhg and 20 mmhg and the “Control Before AII” value [1, 6] was 170 mmhg and 165 mmhg. The “Response After AII” value [1, 6] was 185 mmhg, the “Average Change” value [1, 7] was 11 mmhg and the Inhibition [1, 7] was 79%. The Change [1, 7] was 7 mmhg and 15 mmhg, the “Control Before AII” value [1, 7] was 185 mmhg and 170 mmhg and the “Response After AII” value [1, 7] was 192 mmhg and 185 mmhg. For the same molecule, the “Average Change” value [1, 8] was 12.5 mmhg, the Inhibition [1, 8] was 77% and the Change [1, 8] was 15 mmhg and 10 mmhg. The “Control Before AII” value [1, 8] was 180 mmhg and 175 mmhg, the “Response After AII” value [1, 8] was 195 mmhg and 185 mmhg and the “Average Change” value [1, 9] was 15 mmhg. The Inhibition [1, 9] was 72%, the Change [1, 9] was 15 mmhg and the “Control Before AII” value [1, 9] was 185 mmhg and 175 mmhg. The “Response After AII” value [1, 9] was 200 mmhg and 190 mmhg, the “Average Change” value [1, 10] was 18.5 mmhg and the Inhibition [1, 10] was 65%. The Change [1, 10] was 17 mmhg and 20 mmhg, the “Control Before AII” value [1, 10] was 175 mmhg and 165 mmhg and the “Response After AII” value [1, 10] was 192 mmhg and 185 mmhg. For the same molecule, the “Average Change” value [1, 11] was 38.5 mmhg, the Inhibition [1, 11] was 28% and the Change [1, 11] was 37 mmhg and 40 mmhg. For the same molecule, the “Control Before AII” value [1, 11] was 170 mmhg and 165 mmhg, the “Response After AII” value [1, 11] was 207 mmhg and 205 mmhg and the IC50 (Angiotensin II Receptor) was 30 nM.
